{"source": "patent US9371265B2", "about": "“Compositions and methods related to inhibitors of JAK kinase” (EP PHARMA, INC., priority 2012, dated 2016)", "key": {"AURKA": {"biological_target": "AURKA (Homo sapiens, UniProt O14965)", "sequence (O14965 whole entry)": "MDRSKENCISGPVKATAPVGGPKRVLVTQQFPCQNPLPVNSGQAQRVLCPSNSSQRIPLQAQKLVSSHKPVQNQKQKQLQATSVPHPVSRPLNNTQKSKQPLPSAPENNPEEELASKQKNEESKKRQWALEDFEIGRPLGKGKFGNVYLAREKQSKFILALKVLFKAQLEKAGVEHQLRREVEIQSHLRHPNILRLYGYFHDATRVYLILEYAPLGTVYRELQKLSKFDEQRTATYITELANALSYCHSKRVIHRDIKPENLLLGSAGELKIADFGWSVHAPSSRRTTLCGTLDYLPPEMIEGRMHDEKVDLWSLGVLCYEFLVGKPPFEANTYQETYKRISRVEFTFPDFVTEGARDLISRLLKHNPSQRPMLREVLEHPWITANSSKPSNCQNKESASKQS", "assay": "Kinase panel: AURKA", "type": "biochemical", "details": "10 μM EP009", "procedure": "(§1) Achieving JAK3 selectivity remains a significant challenge in the development of new small molecules for the treatment of cancer and immune-derived diseases. As such, the inventors employed cell-based screening assays of small-molecule libraries based upon the chemical scaffold of the established JAK3 inhibitor NC1153 (Stepkowski et al., J Immunol. (2005), 175(7):4236-4246) EP009 (FIG. 2A) was selected as a lead compound due to improved intrinsic stability (>95% purity in various solvents at 37° C. for 24 hours; FIG. 3) and high-degree of JAK3 selectivity. To test JAK3 versus JAK2 specificity of EP009, the IL-2/JAK3-dependent Kit225, and IL-3/JAK2-dependent BaF/3 cell lines were used. Kit225 and BaF/3 cells growing in the presence of IL-2 or IL-3, respectively, were treated with ascending concentrations of EP009 for 12 hours and cellular JAK3 and JAK2 tyrosine phosphorylation levels detected by Western blot analysis (FIGS. 2B and 2C). Following densitometric analysis, EP009 was determined to dose-dependently reduce IL-2-mediated JAK3 tyrosine phosphorylation with a cellular 50% inhibitory concentration (IC50) between 10 and 20 μM (FIG. 2B). […] To globally evaluate specificity, the inhibitory activity of EP009 was measured against a panel of protein kinases distributed throughout the kinome using the scanEDGE profiling service (KINOMEscan). […]"}, "PARP": {"tested_on": "PARP", "assay": "PARP cleavage in SU-DHL-1 cells (Luminex multiplex)", "type": "cell-based, human", "details": "24 hours, dose-dependent", "procedure": "FIGS. 7A-7C. EP009 reduces ALCL cell viability through induction of caspase 3 mediated apoptosis. (A) SUP-M2, SU-DHL-1 or H2228 cells were cultured with increasing amounts of EP009 (0-10 μM) for 72 hours and cell viability measured with the MTS tetrazolium salt assay. Values represent mean absorbance (OD490-OD650 nm) normalized to vehicle (PBS) treated control cells, while error bars represent the standard deviation (n=3). (B) SU-DHL-1 cells were treated with vehicle (PBS) or increasing amounts of EP009 (0-50 μM) for 24 hours. Cells were then lysed, clarified, and subjected to Luminex multiplex analysis to detect activated caspase 3 and (C) cleaved PARP. Values represent MFI normalized to corresponding GAPDH MFI, while error bars represent the standard deviation (n=2). Representative data from three independent experiments are shown. Statistical significance was determined using Student's t-test. (*, p<0.05).\nThe MILLIPLEX MAP 8-plex Multi-Pathway Signaling Phosphoprotein kit (Millipore) was used to detect phosphorylated ERK1/2 (Thr185/Tyr187), STAT3 (Ser727), JNK1/2 (Thr183/Tyr185), p70 S6 kinase (Thr412), IκBα (Ser32), STAT5A/B (Tyr694/699), CREB (Ser133), and p38 (Thr180/Tyr182). The MILLIPLEX MAP 5-plex STAT Phosphoprotein kit (Millipore) was used to detect phosphorylated STAT1 (Tyr701), STAT2 (Tyr690), STAT3 (Tyr705), STAT5A/B (Tyr694/699), and STAT6 (Tyr641). […]"}, "MARK3": {"biological_target": "MARK3 (Homo sapiens, UniProt P27448)", "sequence (P27448 whole entry)": "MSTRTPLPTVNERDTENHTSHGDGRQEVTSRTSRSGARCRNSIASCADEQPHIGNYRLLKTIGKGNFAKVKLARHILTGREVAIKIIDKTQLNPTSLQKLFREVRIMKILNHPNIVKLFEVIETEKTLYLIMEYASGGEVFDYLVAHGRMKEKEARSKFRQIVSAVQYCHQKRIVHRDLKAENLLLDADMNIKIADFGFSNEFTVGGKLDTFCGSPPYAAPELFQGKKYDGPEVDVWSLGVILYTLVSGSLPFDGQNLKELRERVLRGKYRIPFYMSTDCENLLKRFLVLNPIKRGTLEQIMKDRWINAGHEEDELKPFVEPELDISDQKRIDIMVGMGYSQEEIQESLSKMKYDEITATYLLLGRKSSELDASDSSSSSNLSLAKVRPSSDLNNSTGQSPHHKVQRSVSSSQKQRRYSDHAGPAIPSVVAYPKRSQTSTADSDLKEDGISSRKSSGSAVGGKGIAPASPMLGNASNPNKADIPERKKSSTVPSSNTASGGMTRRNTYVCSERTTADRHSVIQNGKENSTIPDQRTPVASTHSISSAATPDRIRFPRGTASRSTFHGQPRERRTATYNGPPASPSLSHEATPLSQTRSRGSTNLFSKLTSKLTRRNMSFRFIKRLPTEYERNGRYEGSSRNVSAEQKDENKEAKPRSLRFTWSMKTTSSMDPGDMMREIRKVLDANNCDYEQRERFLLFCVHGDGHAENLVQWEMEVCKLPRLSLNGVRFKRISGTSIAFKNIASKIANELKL", "assay": "Kinase panel: MARK3", "type": "biochemical", "details": "10 μM EP009", "procedure": "as §1"}, "JNK2": {"biological_target": "JNK2 (Homo sapiens, UniProt P45984)", "sequence (P45984 whole entry)": "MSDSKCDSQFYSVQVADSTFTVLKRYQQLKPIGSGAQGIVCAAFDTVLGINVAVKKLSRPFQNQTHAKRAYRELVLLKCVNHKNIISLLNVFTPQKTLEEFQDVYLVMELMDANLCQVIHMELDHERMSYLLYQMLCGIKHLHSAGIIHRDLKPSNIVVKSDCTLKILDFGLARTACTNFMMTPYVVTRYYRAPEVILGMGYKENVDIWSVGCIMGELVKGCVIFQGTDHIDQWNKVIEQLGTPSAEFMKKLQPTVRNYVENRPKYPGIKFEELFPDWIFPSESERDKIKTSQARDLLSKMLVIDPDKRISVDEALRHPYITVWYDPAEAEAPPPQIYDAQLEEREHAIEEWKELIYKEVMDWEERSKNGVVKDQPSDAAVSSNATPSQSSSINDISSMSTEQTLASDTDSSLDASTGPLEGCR", "assay": "Kinase panel: JNK2", "type": "biochemical", "details": "10 μM EP009", "procedure": "as §1"}, "BMPR2": {"biological_target": "BMPR2 (Homo sapiens, UniProt Q13873)", "sequence (Q13873 27-1038)": "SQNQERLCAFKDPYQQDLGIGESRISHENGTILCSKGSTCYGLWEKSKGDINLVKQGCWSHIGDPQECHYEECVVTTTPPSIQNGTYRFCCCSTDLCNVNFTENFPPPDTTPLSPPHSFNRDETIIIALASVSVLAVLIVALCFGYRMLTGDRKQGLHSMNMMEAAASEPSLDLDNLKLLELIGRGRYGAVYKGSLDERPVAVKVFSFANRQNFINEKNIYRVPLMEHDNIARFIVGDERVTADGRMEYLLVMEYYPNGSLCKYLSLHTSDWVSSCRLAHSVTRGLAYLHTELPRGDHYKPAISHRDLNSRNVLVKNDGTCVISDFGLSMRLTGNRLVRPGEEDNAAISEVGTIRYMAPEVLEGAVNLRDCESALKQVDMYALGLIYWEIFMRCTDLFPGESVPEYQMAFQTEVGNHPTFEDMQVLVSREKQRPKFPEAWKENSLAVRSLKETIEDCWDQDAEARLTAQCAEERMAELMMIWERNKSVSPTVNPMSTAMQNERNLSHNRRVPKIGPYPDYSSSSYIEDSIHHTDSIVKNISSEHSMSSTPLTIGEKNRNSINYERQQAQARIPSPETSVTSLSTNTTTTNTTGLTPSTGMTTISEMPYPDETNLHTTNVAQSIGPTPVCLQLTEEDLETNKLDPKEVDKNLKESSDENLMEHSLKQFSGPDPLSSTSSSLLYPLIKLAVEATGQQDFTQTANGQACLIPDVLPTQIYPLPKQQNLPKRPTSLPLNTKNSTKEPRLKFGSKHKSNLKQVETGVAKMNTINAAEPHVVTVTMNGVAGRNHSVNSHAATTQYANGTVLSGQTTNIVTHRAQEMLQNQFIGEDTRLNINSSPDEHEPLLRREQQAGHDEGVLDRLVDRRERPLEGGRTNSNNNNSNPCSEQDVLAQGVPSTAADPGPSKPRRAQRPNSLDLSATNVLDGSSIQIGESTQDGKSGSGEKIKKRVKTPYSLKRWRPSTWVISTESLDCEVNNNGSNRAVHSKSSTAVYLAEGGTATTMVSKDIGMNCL", "assay": "Kinase panel: BMPR2", "type": "biochemical", "details": "10 μM EP009", "procedure": "as §1"}, "p38 MAP kinase": {"tested_on": "p38 MAP kinase", "assay": "Phospho-p38 in SU-DHL-1 cells (Luminex multiplex)", "type": "cell-based, human", "details": "24 hours", "procedure": "FIGS. 8A-8F. Effect of EP009 on ALCL cells is mediated through selective activation of ERK1/2 and JNK1/2 stress signaling pathways, and inhibition of p70 S6 kinase growth signaling pathways. SU-DHL-1 cells were treated with vehicle (PBS) or increasing amounts of EP009 (0-50 μM) for 24 hours. Cells were then lysed, clarified, and subjected to Luminex multiplex analysis to detect phosphorylated (A) ERK1/2, (B) JNK1/2, (C) p70 S6 kinase, (D) IκBα, (E) CREB, and (F) p38. Values represent mean fluorescence intensity (MFI) normalized to corresponding GAPDH MFI, while error bars represent the standard deviation (n=2). Representative data from two independent experiments are shown. Statistical significance was determined using Student's t-test. (*, p<0.05).\nThe MILLIPLEX MAP 8-plex Multi-Pathway Signaling Phosphoprotein kit (Millipore) was used to detect phosphorylated ERK1/2 (Thr185/Tyr187), STAT3 (Ser727), JNK1/2 (Thr183/Tyr185), p70 S6 kinase (Thr412), IκBα (Ser32), STAT5A/B (Tyr694/699), CREB (Ser133), and p38 (Thr180/Tyr182). The MILLIPLEX MAP 5-plex STAT Phosphoprotein kit (Millipore) was used to detect phosphorylated STAT1 (Tyr701), STAT2 (Tyr690), STAT3 (Tyr705), STAT5A/B (Tyr694/699), and STAT6 (Tyr641). The MILLIPLEX MAP Human Apoptosis 3-plex kit (Millipore) was used to detect cleaved PARP, cleaved Caspase 3, and total GAPDH for protein normalization."}, "ADCK3": {"biological_target": "ADCK3 (Homo sapiens, UniProt Q8NI60)", "sequence (Q8NI60 163-647)": "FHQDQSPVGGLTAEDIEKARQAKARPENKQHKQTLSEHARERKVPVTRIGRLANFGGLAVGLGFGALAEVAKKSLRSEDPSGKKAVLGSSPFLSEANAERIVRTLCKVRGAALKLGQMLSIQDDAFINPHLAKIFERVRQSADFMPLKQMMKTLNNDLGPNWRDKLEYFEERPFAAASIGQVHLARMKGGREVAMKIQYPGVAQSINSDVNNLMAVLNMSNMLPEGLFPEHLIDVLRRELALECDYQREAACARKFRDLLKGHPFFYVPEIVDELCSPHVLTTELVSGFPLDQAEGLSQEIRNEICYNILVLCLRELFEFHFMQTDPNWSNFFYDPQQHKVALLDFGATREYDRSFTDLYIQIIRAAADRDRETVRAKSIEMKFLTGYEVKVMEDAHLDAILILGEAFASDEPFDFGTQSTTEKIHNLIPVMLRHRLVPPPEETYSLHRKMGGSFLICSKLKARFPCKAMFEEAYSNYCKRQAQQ", "assay": "Kinase panel: ADCK3", "type": "biochemical", "details": "10 μM EP009", "procedure": "as §1"}, "FAK": {"biological_target": "FAK (Homo sapiens, UniProt Q05397)", "sequence (Q05397 whole entry)": "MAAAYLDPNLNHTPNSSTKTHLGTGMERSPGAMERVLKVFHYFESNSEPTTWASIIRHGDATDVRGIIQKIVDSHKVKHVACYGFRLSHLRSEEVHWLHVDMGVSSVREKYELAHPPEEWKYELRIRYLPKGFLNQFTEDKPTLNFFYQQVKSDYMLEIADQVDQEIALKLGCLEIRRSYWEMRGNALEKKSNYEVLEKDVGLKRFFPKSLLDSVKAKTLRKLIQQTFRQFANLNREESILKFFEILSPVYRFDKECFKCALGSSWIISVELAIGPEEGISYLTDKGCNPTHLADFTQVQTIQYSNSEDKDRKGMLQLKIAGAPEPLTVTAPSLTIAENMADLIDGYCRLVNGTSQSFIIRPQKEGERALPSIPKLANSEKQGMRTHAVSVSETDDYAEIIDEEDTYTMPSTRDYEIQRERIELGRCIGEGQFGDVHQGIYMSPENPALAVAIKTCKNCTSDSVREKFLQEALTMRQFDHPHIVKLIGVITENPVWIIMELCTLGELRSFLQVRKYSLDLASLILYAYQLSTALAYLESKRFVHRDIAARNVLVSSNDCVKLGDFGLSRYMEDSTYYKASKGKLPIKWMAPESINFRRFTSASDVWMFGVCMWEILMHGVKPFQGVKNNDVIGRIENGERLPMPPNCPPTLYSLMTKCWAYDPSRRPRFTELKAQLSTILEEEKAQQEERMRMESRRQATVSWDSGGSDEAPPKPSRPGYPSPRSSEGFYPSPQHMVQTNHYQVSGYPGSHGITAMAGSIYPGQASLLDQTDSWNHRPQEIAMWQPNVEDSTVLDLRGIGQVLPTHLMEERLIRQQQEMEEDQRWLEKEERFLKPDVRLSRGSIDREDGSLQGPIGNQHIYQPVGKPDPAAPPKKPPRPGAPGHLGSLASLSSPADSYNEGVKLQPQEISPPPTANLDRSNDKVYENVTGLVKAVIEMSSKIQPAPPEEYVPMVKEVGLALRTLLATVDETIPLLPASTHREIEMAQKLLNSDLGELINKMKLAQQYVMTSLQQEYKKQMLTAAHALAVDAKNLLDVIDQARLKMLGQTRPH", "assay": "Kinase panel: FAK", "type": "biochemical", "details": "10 μM EP009", "procedure": "as §1"}}}
{"molecule": "C=C1CCCCCCCCCC(CO)C1=O", "note": "(stereo not drawn) [EP009, 2-(Hydroxymethyl)-12-methylenecyclododecanone]", "values": [{"measurement": "inhibition of Aurora kinase A (AURKA)", "setting": "AURKA", "value": 45, "unit": "% inhibition"}, {"measurement": "Kinase Activity (% of Control)", "setting": "AURKA; AURKA", "value": "55 % of Control"}, {"measurement": "PARP cleavage", "setting": "PARP", "value": "increased"}, {"measurement": "Kinase Activity (% of Control)", "setting": "MARK3", "value": "100 % of Control"}, {"measurement": "Kinase Activity (% of Control)", "setting": "JNK2", "value": "100 % of Control"}, {"measurement": "Kinase Activity (% of Control)", "setting": "BMPR2", "value": "75 % of Control"}, {"measurement": "p38 MAP kinase phosphorylation status", "setting": "p38 MAP kinase", "value": "No statistically significant change"}, {"measurement": "Kinase Activity (% of Control)", "setting": "ADCK3", "value": "98 % of Control"}, {"measurement": "Kinase Activity (% of Control)", "setting": "FAK", "value": "69 % of Control"}]}
